{"source": "PubChem BioAssay (NCI)", "assay_in_all_cases": "DTP human tumour cell line panel, 48 h", "key": {"SW-620 colon": {"system": "SW-620 colon"}, "NCI-H522 lung": {"system": "NCI-H522 lung"}, "DU-145 prostate": {"system": "DU-145 prostate"}, "U251 CNS": {"system": "U251 CNS"}, "HCT-116 colon": {"system": "HCT-116 colon"}, "SF-268 CNS": {"system": "SF-268 CNS"}, "COLO 205 colon": {"system": "COLO 205 colon"}, "SN12C renal": {"system": "SN12C renal"}, "A549 NSCLC": {"system": "A549 NSCLC"}, "786-0 renal": {"system": "786-0 renal"}, "NCI-H226 lung": {"system": "NCI-H226 lung"}, "HOP-92 NSCLC": {"system": "HOP-92 NSCLC"}, "SNB-19 CNS": {"system": "SNB-19 CNS"}, "UACC-257 melanoma": {"system": "UACC-257 melanoma"}, "MCF7 breast": {"system": "MCF7 breast"}, "HCT-15 colon": {"system": "HCT-15 colon"}, "SK-MEL-5 melanoma": {"system": "SK-MEL-5 melanoma"}, "SK-MEL-28 melanoma": {"system": "SK-MEL-28 melanoma"}, "OVCAR-3 ovarian": {"system": "OVCAR-3 ovarian"}, "NCI/ADR-RES ovarian": {"system": "NCI/ADR-RES ovarian"}, "HL-60(TB) leukemia": {"system": "HL-60(TB) leukemia"}, "NCI-H23 lung": {"system": "NCI-H23 lung"}, "TK-10 renal": {"system": "TK-10 renal"}, "HT29 colon": {"system": "HT29 colon"}, "SK-MEL-2 melanoma": {"system": "SK-MEL-2 melanoma"}, "OVCAR-4 ovarian": {"system": "OVCAR-4 ovarian"}, "SF-295 CNS": {"system": "SF-295 CNS"}, "ACHN renal": {"system": "ACHN renal"}, "NCI-H460 lung": {"system": "NCI-H460 lung"}, "UACC-62 melanoma": {"system": "UACC-62 melanoma"}, "HS 578T breast": {"system": "HS 578T breast"}, "SNB-75 CNS": {"system": "SNB-75 CNS"}, "SK-OV-3 ovarian": {"system": "SK-OV-3 ovarian"}, "M14 melanoma": {"system": "M14 melanoma"}, "CCRF-CEM leukemia": {"system": "CCRF-CEM leukemia"}, "PC-3 prostate": {"system": "PC-3 prostate"}, "HOP-62 NSCLC": {"system": "HOP-62 NSCLC"}, "BT-549 breast": {"system": "BT-549 breast"}, "KM12 colon": {"system": "KM12 colon"}, "UO-31 renal": {"system": "UO-31 renal"}, "SF-539 CNS": {"system": "SF-539 CNS"}, "HCC-2998 colon": {"system": "HCC-2998 colon"}, "MDA-MB-435": {"system": "MDA-MB-435"}, "OVCAR-5 ovarian": {"system": "OVCAR-5 ovarian"}, "MDA-N": {"system": "MDA-N"}, "MOLT-4 leukemia": {"system": "MOLT-4 leukemia"}, "LOX IMVI melanoma": {"system": "LOX IMVI melanoma"}, "OVCAR-8 ovarian": {"system": "OVCAR-8 ovarian"}, "IGROV1 ovarian": {"system": "IGROV1 ovarian"}, "RXF 393 renal": {"system": "RXF 393 renal"}, "EKVX NSCLC": {"system": "EKVX NSCLC"}, "CAKI-1 renal": {"system": "CAKI-1 renal"}, "MDA-MB-231 breast": {"system": "MDA-MB-231 breast"}}, "note": "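Grown in 96-well plates, cells were treated for 48 hours with each compound at five concentrations. Insufficient inhibition: endpoint recorded as highest concentration tested. TGI marks complete inhibition of growth.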"}
{"smiles": "COc1ccccc1/C=C1/Sc2scc(CC(=O)Nc3ccccc3)[n+]2C1=O", "values": [{"measurement": "TGI", "setting": "SW-620 colon", "value": "> 100", "unit": "µM"}, {"measurement": "TGI", "setting": "NCI-H522 lung", "value": 73.4, "unit": "µM"}, {"measurement": "TGI", "setting": "DU-145 prostate", "value": "> 100", "unit": "µM"}, {"measurement": "TGI", "setting": "U251 CNS", "value": "> 100", "unit": "µM"}, {"measurement": "TGI", "setting": "HCT-116 colon", "value": "> 100", "unit": "µM"}, {"measurement": "TGI", "setting": "SF-268 CNS", "value": "> 100", "unit": "µM"}, {"measurement": "TGI", "setting": "COLO 205 colon", "value": 65.4, "unit": "µM"}, {"measurement": "TGI", "setting": "SN12C renal", "value": "> 100", "unit": "µM"}, {"measurement": "TGI", "setting": "A549 NSCLC", "value": "> 100", "unit": "µM"}, {"measurement": "TGI", "setting": "786-0 renal", "value": "> 100", "unit": "µM"}, {"measurement": "TGI", "setting": "NCI-H226 lung", "value": 69.7, "unit": "µM"}, {"measurement": "TGI", "setting": "HOP-92 NSCLC", "value": 52.3, "unit": "µM"}, {"measurement": "TGI", "setting": "SNB-19 CNS", "value": "> 100", "unit": "µM"}, {"measurement": "TGI", "setting": "UACC-257 melanoma", "value": 80.4, "unit": "µM"}, {"measurement": "TGI", "setting": "MCF7 breast", "value": "> 100", "unit": "µM"}, {"measurement": "TGI", "setting": "HCT-15 colon", "value": "> 100", "unit": "µM"}, {"measurement": "TGI", "setting": "SK-MEL-5 melanoma", "value": 36, "unit": "µM"}, {"measurement": "TGI", "setting": "SK-MEL-28 melanoma", "value": "> 100", "unit": "µM"}, {"measurement": "TGI", "setting": "OVCAR-3 ovarian", "value": 43.4, "unit": "µM"}, {"measurement": "TGI", "setting": "NCI/ADR-RES ovarian", "value": 59.9, "unit": "µM"}, {"measurement": "TGI", "setting": "HL-60(TB) leukemia", "value": 47.1, "unit": "µM"}, {"measurement": "TGI", "setting": "NCI-H23 lung", "value": "> 100", "unit": "µM"}, {"measurement": "TGI", "setting": "TK-10 renal", "value": 74.3, "unit": "µM"}, {"measurement": "TGI", "setting": "HT29 colon", "value": "> 100", "unit": "µM"}, {"measurement": "TGI", "setting": "SK-MEL-2 melanoma", "value": 73.3, "unit": "µM"}, {"measurement": "TGI", "setting": "OVCAR-4 ovarian", "value": "> 100", "unit": "µM"}, {"measurement": "TGI", "setting": "SF-295 CNS", "value": "> 100", "unit": "µM"}, {"measurement": "TGI", "setting": "ACHN renal", "value": "> 100", "unit": "µM"}, {"measurement": "TGI", "setting": "NCI-H460 lung", "value": "> 100", "unit": "µM"}, {"measurement": "TGI", "setting": "UACC-62 melanoma", "value": 45.1, "unit": "µM"}, {"measurement": "TGI", "setting": "HS 578T breast", "value": "> 100", "unit": "µM"}, {"measurement": "TGI", "setting": "SNB-75 CNS", "value": "> 100", "unit": "µM"}, {"measurement": "TGI", "setting": "SK-OV-3 ovarian", "value": 71.7, "unit": "µM"}, {"measurement": "TGI", "setting": "M14 melanoma", "value": "> 100", "unit": "µM"}, {"measurement": "TGI", "setting": "CCRF-CEM leukemia", "value": 51.7, "unit": "µM"}, {"measurement": "TGI", "setting": "PC-3 prostate", "value": 93.3, "unit": "µM"}, {"measurement": "TGI", "setting": "HOP-62 NSCLC", "value": "> 100", "unit": "µM"}, {"measurement": "TGI", "setting": "BT-549 breast", "value": 93.2, "unit": "µM"}, {"measurement": "TGI", "setting": "KM12 colon", "value": "> 100", "unit": "µM"}, {"measurement": "TGI", "setting": "UO-31 renal", "value": 70.7, "unit": "µM"}, {"measurement": "TGI", "setting": "SF-539 CNS", "value": "> 100", "unit": "µM"}, {"measurement": "TGI", "setting": "HCC-2998 colon", "value": "> 100", "unit": "µM"}, {"measurement": "TGI", "setting": "MDA-MB-435", "value": "> 100", "unit": "µM"}, {"measurement": "TGI", "setting": "OVCAR-5 ovarian", "value": "> 100", "unit": "µM"}, {"measurement": "TGI", "setting": "MDA-N", "value": 69.9, "unit": "µM"}, {"measurement": "TGI", "setting": "MOLT-4 leukemia", "value": 56.2, "unit": "µM"}, {"measurement": "TGI", "setting": "LOX IMVI melanoma", "value": "> 100", "unit": "µM"}, {"measurement": "TGI", "setting": "OVCAR-8 ovarian", "value": "> 100", "unit": "µM"}, {"measurement": "TGI", "setting": "IGROV1 ovarian", "value": "> 100", "unit": "µM"}, {"measurement": "TGI", "setting": "RXF 393 renal", "value": 80.8, "unit": "µM"}, {"measurement": "TGI", "setting": "EKVX NSCLC", "value": "> 100", "unit": "µM"}, {"measurement": "TGI", "setting": "CAKI-1 renal", "value": "> 100", "unit": "µM"}, {"measurement": "TGI", "setting": "MDA-MB-231 breast", "value": 70.8, "unit": "µM"}]}
